Measurements as given in patent US20230285411A1, “DRUG FORMULATION CONTAINING SEPETAPROST” (SANTEN PHARMACEUTICAL CO., LTD., priority 2020, published 2023).

How the values were obtained:
Type in all cases: in vivo, cynomolgus monkey
[1] = tested on: cynomolgus monkeys (monkeys with normal intraocular pressure), selected monkeys with an inadequate response to latanoprost; experiment: Selection of monkeys with inadequate response to latanoprost: intraocular pressure after single latanoprost eye drop; conditions: for intraocular pressure change value: 0.005% (w/v) eye drop, 20 μL/eye once, 7 selected monkeys
Method: 1. Selection of monkeys with inadequate response to latanoprost Latanoprost eye drop was administered to cynomolgus monkeys (monkeys with normal intraocular pressure) and each individual animal was examined for responsiveness to latanoprost to select monkeys with an inadequate response to latanoprost.
(§1) (Eye Drop) • Latanoprost eye drop: Xalatan® Eye Drops 0.005% (w/v) (Pfizer Japan Inc.)
(Test Animals) • Cynomolgus monkeys: 32 animals (Sex/male)
(§2) <Methods for Administration and Measurement> • (1) An intraocular pressure was measured immediately before administering the test eye drop and was defined as the pre-administration intraocular pressure value (0 hour). • (2) The test eye drop was administered once (20 μL/eye) to one eye (right eye) of the test animals using a PIPETMAN. The contralateral eye was untreated. • (3) An intraocular pressure was measured at 2, 4, and 6 hours after the administration. The intraocular pressure was measured three times for each to calculate its average value. An intraocular pressure change value (mmHg) was calculated as the difference from the pre-administration intraocular pressure value (0 hour) at each measurement time point.
The test was conducted as a crossover study. A physiological saline solution was administered as a test eye drop to a control group. Two series of administering the latanoprost eye drop were conducted and designated as a latanoprost (first time) group and a latanoprost (second time) group, respectively.

[2] = tested on: monkeys with an inadequate response to latanoprost; experiment: Test for effect of latanoprost on lowering intraocular pressure in monkeys with inadequate response to latanoprost; conditions: for intraocular pressure change value: 20 μL/eye once
Method: Latanoprost eye drop was administered to the monkeys with an inadequate response to latanoprost, and its effect on lowering the intraocular pressure at 10 and 12 hours after the administration was evaluated.
as §1
(§3) (Test Animals) • Cynomolgus monkeys: 7 animals (sex: male) selected in “1. Selection of monkeys with inadequate response to latanoprost”
as §2, with “10” for “2, 4,”, “12” for “6”

[3] = tested on: monkeys with an inadequate response to latanoprost; experiment: Test for effect of sepetaprost on lowering intraocular pressure in monkeys with inadequate response to latanoprost; conditions: for intraocular pressure lowering action: 10 and 12 hours after the administration, in words; for intraocular pressure lowering width / intraocular pressure change value: 0.002% (w/v) eye drop; for intraocular pressure change value: 20 μL/eye once
Method: Sepetaprost eye drop was administered to monkeys with an inadequate response to latanoprost, and its effect on lowering the intraocular pressure at 10 and 12 hours after the administration was evaluated.
(Eye Drop) • Sepetaprost eye drop: Sepetaprost was dissolved in a base, and then, a sepetaprost eye drop with a concentration of 0.002% (w/v) was prepared by using a commonly used method.
as §3
as §2, with “[…].” for “PIPETMAN.”, “10” for “2, 4,”, “12” for “6”
The test was conducted as a crossover study. The above-mentioned base was administered as a test eye drop to a control group. Two series of administering the sepetaprost eye drop were conducted and designated as a sepetaprost (first time) group and a sepetaprost (second time) group, respectively.

[4] = 12 hours after administration, 0.005% (w/v) eye drop
[5] = first time group, 10 hours after administration
[6] = first time group, 12 hours after administration
[7] = second time group, 10 hours after administration
[8] = second time group, 12 hours after administration

CC(C)OC(=O)CCC/C=C\C[C@@H]1[C@@H](CC[C@@H](O)CCc2ccccc2)[C@H](O)C[C@@H]1O [Latanoprost, latanoprost]
change over time in the intraocular pressure ([1]; first time and second time groups, up to 6 hours after the administration, in words): little change over time
intraocular pressure change value ([1]; first time group, 2 hours after administration): 1.0 mmHg
intraocular pressure change value ([1]; first time group, 4 hours after administration): −0.2 mmHg
intraocular pressure change value ([1]; first time group, 6 hours after administration): −0.6 mmHg
intraocular pressure change value ([1]; second time group, 2 hours after administration): 0.4 mmHg
intraocular pressure change value ([1]; second time group, 4 hours after administration): 0.0 mmHg
intraocular pressure change value ([1]; second time group, 6 hours after administration): −0.1 mmHg
intraocular pressure change value ([2]; 10 hours after administration, 0.005% (w/v) eye drop): −0.5 mmHg
intraocular pressure lowering width [2, 4]: 1.2 mmHg
intraocular pressure change value [2, 4]: −1.2 mmHg
intraocular pressure lowering effect ([2]; up to 12 hours after the administration, in words): inadequate

CC(C)OC(=O)CCC[C@H]1CC[C@@H]2[C@@H](/C=C/[C@@H](O)COc3cc(F)ccc3F)[C@H](O)C[C@@H]2OC1 [Sepetaprost, 2-propanyl 4-{(3S,5aR,6R,7R,8aS)-6-[(1E,3R)-4-(2,5-difluorophenoxy)-3-hydroxy-1-buten-1-yl]-7-hydroxyoctahydro-2H-cyclopenta[b]oxepin-3-yl}butanoate]
intraocular pressure lowering action [3]: adequate
intraocular pressure lowering action ([3]; listed as sepetaprost eye drop): significant
intraocular pressure lowering width [3, 5]: 3.1 mmHg
intraocular pressure change value [3, 5]: −3.1 mmHg
intraocular pressure lowering width [3, 6]: 3.3 mmHg
intraocular pressure change value [3, 6]: −3.3 mmHg
intraocular pressure lowering width [3, 7]: 2.6 mmHg
intraocular pressure change value [3, 7]: −2.6 mmHg
intraocular pressure lowering width [3, 8]: 3.4 mmHg
intraocular pressure change value [3, 8]: −3.4 mmHg
